Patent publication US10982337B2, “Corrosion inhibition” (SCHLUMBERGER TECHNOLOGY CORPORATION, priority 2015, dated 2021)

Columns and labels:
[1] = Corrosion weight loss test on steel coupons in HCl; parameters: Pitting Index: scale not given here
Source text: (§1) Such “acceptable” levels of corrosion are application-specific.

Skeletonema costatum = assay: Marine algal growth inhibition test ISO 10253; format: cell-based
Experimental: (§2) The acute toxicity of NMHQ to the marine algae Skeletonema costatum was tested. Cultures of the algae Skeletonema costatum were exposed to a series of concentrations of NMHQ. The test was carried out according to ISO protocol ‘ISO 10253 Water quality—Marine algal growth inhibition test with Skeletonema costatum and Phaeodactylum tricornutum’.
(§3) In addition to blank, concentrations of 10, 100, 1000 mg/L (WAF) in sea water were tested.

[2] = Marine algal growth inhibition test ISO 10253; format: cell-based, Skeletonema costatum; settings: Skeletonema costatum, cultures of the marine alga Skeletonema costatum; algal growth inhibition, 72 h, WAF in sea water, 10-1000 mg/L tested
Experimental: as §2, §3

[3] = Corrosion weight loss test on steel coupons in HCl; parameters: Pitting Index: scale not given here; remark: listed apart in the source
Source text: as §1

[4] = Rotating Cylinder Electrode electrochemistry, charge transfer resistance; settings: 5 mM inhibitor, 10 mM KI, 4 mol/L HCl, 2000 rpm, 80° C.; FIG. 6
Source text: (§4) EIS can be used to monitor the corrosion rate of a system. The parameter of interest is the charge transfer resistance, Rct, which can be thought of the ‘resistance’ to corrosion. A metal test piece is used as the working electrode in a three-electrode electrochemical cell with the corrosive solution as electrolyte. Impedance data is obtained by applying a small alternating voltage to the working electrode and measuring the resulting current to obtain a value of impedance. This is done at a range of frequencies. Then, in order to extract the parameter of interest, the metal/inhibitor/electrolyte interfaces are modelled as an electrical equivalent circuit and the theoretical impedance is fitted to the data. […] Charge transfer resistance, Rct, is measured. Charge transfer resistance, Rct is a measure for corrosion resistance, and is inversely proportional to corrosion rate (CR). Therefore 1/Rct is proportional to CR.

[5] = as above; settings: 5 mM inhibitor, 10 mM KI, 4 mol/L HCl, 2000 rpm, 80° C.; FIG. 6; remark: listed apart in the source
Source text: as §4

[6] = as above; settings: 5 mM inhibitor, 10 mM KI, 4 mol/L HCl, 2000 rpm, 80° C.; FIG. 6; remark: listed apart in the source
Source text: as §4

[7] = Corrosion weight loss test on steel coupons in HCl
Experimental: Experiments were carried out with coupons of the following steels: • 22Cr125 also designated 2205, a duplex alloy steel which is an iron-chromium-nickel-molybdenum alloy, used (among other things) to fabricate casing. • HS80™ (TradeMark of TENARIS), a low carbon steel used to fabricate coiled tubing. • N80, a medium carbon steel used to fabricate borehole casing. • 13Cr80, an alloy steel containing 13 wt % chromium without nickel, also used to fabricate borehole casing.
(1) Metal Type: Duplex Stainless Steel 22Cr125 Casing (2205 b6); 4 mol/L HCl, T=80° C., 3 Hours Exposure

[8] = Rotating Cylinder Electrode electrochemistry, charge transfer resistance; settings: 5 mM inhibitor, 10 mM KI, 4 mol/L HCl, 2000 rpm, 80° C.; FIG. 6; remark: listed apart in the source
Source text: as §4

[9] = Corrosion weight loss test on steel coupons in HCl; parameters: Pitting Index: scale not given here; remark: listed apart in the source
Source text: as §1

[10] = 0.3000 wt % (10.97 mmol/L), 4 mol/L HCl, 80° C., 3 hours

With `c1ccc2c(c1)CCCN2Cc1cccc2ccccc12` [NMTHQ] the “Pitting Index” value ([1]; 0.0055 wt % (0.20 mmol/L), 4 mol/L HCl, 80° C., 3 hours) was 5, the “Pitting Index” value ([1]; 0.0273 wt % (1.00 mmol/L), 4 mol/L HCl, 80° C., 3 hours) was 2 and the “Pitting Index” value ([1]; 0.11 wt % (4.02 mmol/L), 4 mol/L HCl, 80° C., 3 hours) was 0. For the same compound, the “Pitting Index” value ([1]; 0.1366 wt % (5.00 mmol/L) + KI 10 mmol/L) was 0, the “Pitting Index” value ([1]; 0.1366 wt % (5.00 mmol/L), no KI, 4 mol/L HCl, 80° C., 3 hours) was 0 and the “Pitting Index” value ([1]; 0.192 wt % (7.02 mmol/L), 4 mol/L HCl, 80° C., 3 hours) was 0. For the same compound, the “factor by which addition of 10 mM potassium iodide reduces the weight loss” value ([1]; HS80, NMTHQ 4.0-5.1 mmol/L) was 8.8, the “NOEC(72 h)” value (Skeletonema costatum; algal growth inhibition, 72 h, WAF in sea water, 10-1000 mg/L tested) was 1000 mg/L and the “aquatic toxicity (in words)” value (Skeletonema costatum; seawater under neutral conditions (pH 7.7-8.3)) was “zero aquatic toxicity”. The EC50 at 72 h [2] was > 1000 µg/mL, the EC90 at 72 h [2] was > 1000 µg/mL and the “Pitting Index” value ([3]; 0.1367 wt % (5.00 mmol/L), no KI, 4 mol/L HCl, 80° C., 3 hours) was 4. The “Pitting Index” value ([3]; 0.1382 wt % (5.06 mmol/L) + KI 10 mmol/L) was 0, the “Pitting Index” value [3, 10] was 0 and the “inhibition performance compared at equivalent molar concentrations (in words)” value ([3]; 13Cr80, 4 mol/L HCl, 80° C., 3 hours) was “superior to the known acid corrosion inhibitor, NMQCl”. For the same compound, the “factor by which addition of 10 mM potassium iodide reduces the weight loss” value ([3]; 13Cr80, NMTHQ 4.0-5.1 mmol/L) was 10.5, the “1/Rct (proportional to corrosion rate), NMHQ compared with NMQCl” value (“1/Rct … compared with NMQCl” for short) [4] was “more effective inhibitor” and the “1/Rct … compared with NMQCl” value [5] was “very similar results”. The “1/Rct … compared with NMQCl” value [6] was “very similar results”, the “Pitting Index” value ([7]; 0.11 wt % (4.02 mmol/L) + KI 10 mmol/L, 2205 (b6)) was 0 and the “Pitting Index” value ([7]; 0.11 wt % (4.02 mmol/L), no KI, 2205 b6, 4 mol/L HCl, 80° C., 3 hours) was 4. The “Pitting Index” value ([7]; 0.1367 wt % (5.00 mmol/L), KI 0, 2205 (b5)) was 4, the “Pitting Index” value ([7]; 0.1368 wt % (5.00 mmol/L) + KI 20 mmol/L, 2205 (b5)) was 0 and the “Pitting Index” value ([7]; 0.1913 wt % (7.00 mmol/L), 2205 b6, 4 mol/L HCl, 80° C., 3 hours) was 3. For the same compound, the “Pitting Index” value ([7]; 0.30 wt % (10.97 mmol/L), 2205 b6, 4 mol/L HCl, 80° C., 3 hours) was 0, the “Pitting Index” value ([7]; 0.547 wt % (20.01 mmol/L), 2205 b6, 4 mol/L HCl, 80° C., 3 hours) was 0 and the “inhibition performance compared at equivalent molar concentrations (in words)” value ([7]; 22Cr125, 4 mol/L HCl, 80° C., 3 hours) was “very similar to the known acid corrosion inhibitor NMQCl”. For the same compound, the “factor by which addition of 10 mM potassium iodide reduces the weight loss” value ([7]; 2205 (b6), NMTHQ 4.0-5.1 mmol/L) was 9.4, the “1/Rct … compared with NMQCl” value [8] was “significant lower” and the “Pitting Index” value ([9]; 0.1368 wt % (5.00 mmol/L), no KI, 4 mol/L HCl, 80° C., 3 hours) was 3. The “Pitting Index” value ([9]; 0.1389 wt % (5.08 mmol/L) + KI 10 mmol/L) was 0, the “Pitting Index” value ([9]; 0.2065 wt % (7.55 mmol/L), 4 mol/L HCl, 80° C., 3 hours) was 2 and the “Pitting Index” value [9, 10] was 0. For the same compound, the “Pitting Index” value ([9]; 0.3013 wt % (11.02 mmol/L), 4 mol/L HCl, 80° C., 3 hours) was 0, the “Pitting Index” value ([9]; 0.3017 wt % (11.04 mmol/L), 4 mol/L HCl, 80° C., 3 hours) was 0 and the “factor by which addition of 10 mM potassium iodide reduces the weight loss” value ([9]; N80, NMTHQ 4.0-5.1 mmol/L) was 5.3.
